Data on 90 compounds can be found in a melting point compilation (Tetko et al.; mined from patent text by program, amines drawn as free bases though some values may be those of a salt).

Some results are limits rather than exact numbers.

In the case of `COc1c(C(N)=O)nnn1Cc1ccccc1Cl`, the melting point (usually the temperature, or range, at which the solid turns liquid) lay within 185 to 187 °C.

`CSC(SC)=C(C(=O)C(C)(C)C)n1cncn1` came in with a melting point of 60 °C.

In turn, `CC(C(=O)Nc1ccc(-n2nc(C(F)(F)F)cc2C(F)(F)F)cc1)c1ccc(C(=O)c2cccs2)cc1` (stereo not given) registered a melting point below 80 °C.

Compound `COc1ccccc1N1CCN(C(=O)[C@H](N)CC2CCCCC2)CC1` registered a melting point of 165 to 168 °C.

`Cn1nnnc1C(C=O)=C(c1ccccc1)c1ccccc1` gave a melting point of 185 to 186 °C.

In the case of `COc1cc2c(cc1OC)-c1c(C(N)=O)c(-c3cc(C)c(O)c(C)c3)c(C)n1CC2`, the melting point was 229 to 231 °C.

Compound `CCCCOC(=O)C=C(C)C=CC=C(C)C=Cc1c(C)cc(C)c([N+](=O)[O-])c1C` showed a melting point of 205 to 206 °C.

In the case of `COc1ccc(N2CCN(CCC3OCCc4ccc(C(N)=O)cc43)CC2)cc1` (stereo not given), the melting point was 178 to 180 °C.

Take `CC(CCCS(C)(=O)=O)C(c1cc(F)ccc1F)S(=O)(=O)c1ccc(Cl)cc1` (stereo not given): the melting point fell in the range of 115 to 117 °C.

As for `COC1CCC(CCNC(=O)n2cc(F)c(=O)[nH]c2=O)CC1OC` (stereo not given), the melting point stood at 129 °C.

For `CCCCc1nc2c(N)nc3cccnc3c2n1CCNC(=O)C1CCCCC1`, the melting point lay in the range of 188 to 190 °C.

Turning to `CCOC(=O)C(C(=O)Nc1cc(OC)c(OC)c(OC)c1)(c1ccccc1)c1ccccc1`, the melting point lay in the range of 109 to 111 °C.

`CC12CCC3c4cccc([N+](=O)[O-])c4CCC3C1CCC2O` (stereo not given) returned a melting point of 151 to 152 °C.

Compound `CN(C)C(=O)Nc1cccc(-c2nc(=O)c3ccccc3s2)n1` had a melting point of 230 °C.

In the case of `O=c1c(-c2cccc(C(F)(F)F)c2)c[nH]n1-c1cccc(C(F)(F)F)c1`, the melting point was 207 to 208 °C.

`O=COC1(N=NC2(OC=O)CCCCC2)CCCCC1` displayed a melting point of 97 to 99.5 °C.

Compound `O=C(Nc1nc(C(F)(F)C(F)(F)F)c(CF)s1)c1cc(C(F)(F)F)cc(C(F)(F)F)c1` registered a melting point of 133 to 134 °C.

`NC(=O)c1cc(-c2ccnc(Nc3cccc(Cl)c3)n2)ccn1` gave a melting point of 245 to 247 °C.

On to `CCCc1c(C(=O)C(C)C)c2ccc(C(=O)O)cc2n1Cc1ccc(F)cc1Cl`, for which the melting point was in the range of 243 to 244 °C.

`Cc1ccc(S(=O)(=O)Oc2ccc(S(=O)(=O)CC(=O)C(C)C)cc2)cc1` yielded a melting point of 156 to 157 °C.

`COc1cc(CNc2cc(Cl)c(N=CN(C)C)c(Cl)c2)cc(OC)c1` returned a melting point of 124 to 125 °C.

The compound `O=C(O)c1ccccc1I(=O)=O` yielded a melting point of 226 to 234 °C.

The compound `OCC1OC(n2cnc3c(NCC(c4ccccc4)c4cccc(Cl)c4)ncnc32)C(O)C1O` (stereo not given) returned a melting point of 107 to 110 °C.

Turning to `CC(=O)NCc1cccc(Nc2nccc(-c3sc(-c4ccc(C)nc4)nc3C)n2)c1`, the melting point was 227 to 229 °C.

In the case of `O=Cc1ccc(CCBr)cc1`, the melting point was 49 to 52 °C.

As to `Cc1ccc(-c2ccc(C(=O)O)cc2)c(N)c1`, the melting point lay in the range of 273 to 278 °C.

Compound `CCOC(=O)c1c(CCCn2cncn2)nc2sc3cnccc3c2c1-c1ccc(OC)c(OC)c1` returned a melting point of 127 to 129 °C.

As for `COc1cc2c(Nc3ccc(Cl)cc3F)ncnc2cc1OCCNC1CCCC1`, the melting point was in the range of 171 to 173 °C.

Regarding `CN(Cc1ccc(NC(=O)C2=Cc3cc(-c4ccc(OC(F)(F)F)cc4)ccc3OCC2)cc1)C1CCOCC1`, the melting point was in the range of 187 to 188 °C.

`Cc1cc(C)cc(Nn2c(-c3ccccc3)c(C)[nH]c2=S)c1` had a melting point of 240 to 242 °C.

Turning to `O=C1NC(=O)c2ccccc2/C1=C/Nc1cccc(CN2CCCCCC2)c1`, the melting point was in the range of 116 to 117 °C.

Compound `Clc1cccc2c1ccn2Cc1ccccc1` had a melting point of 58 to 60 °C.

In the case of `O=S(=O)(CCl)Nc1ccc(F)cc1Cl`, the melting point is 83 to 85 °C.

`O=c1[nH]c(COc2ccc(Cl)c(Cl)c2)nc2nccnc12`: the melting point is 285 to 287 °C.

`COc1cc(OC)c(OC)cc1CN[C@@H](C(=O)O)[C@H](O)[C@H](Cc1ccccc1)NC(=O)OC(C)(C)C` returned a melting point of 206 °C.

`[N-]=[N+]=NOS(=O)(=O)N=[N+]=[N-]` returned a melting point of 60 °C.

On to `NC(=O)c1ccccc1N1CCc2cc(Cl)ccc21`, for which the melting point lay within 137 to 138 °C.

In turn, `CCCn1c(=O)c2[nH]c([C@@H](C)Cc3ccccc3)nc2n(CCC)c1=O` gave a melting point of 141 to 142 °C.

Compound `N#Cc1ccc(-c2ccc(-c3cccs3)s2)s1` returned a melting point of 122 to 125 °C.

In turn, `O=S(=O)(NCC(c1ccccc1)c1ccc(O)cc1)c1ccccc1` (stereo not given) displayed a melting point of 120 to 124 °C.

`COc1cccc(OCC(O)c2cccc(OCc3ccc4ccccc4n3)c2)c1` (stereo not given) returned a melting point of 103 to 105 °C.

`Cn1ncc(NCCN2CCN(c3cccc4c3OCCO4)CC2)cc1=O` yielded a melting point of 188 to 190 °C.

Take `CNc1ncc2c(-c3cccc(Cl)c3)cc(-c3ccc(C(=O)O)cc3)c(O)c2n1`: the melting point lay within 291 to 296 °C.

Compound `CCn1c(=O)c(-c2cc(C)cc(C)c2)cc2cnc(Nc3ccccc3)nc21` displayed a melting point of 220 to 223 °C.

Turning to `CC1(C)C(=O)Nc2cc3oc(-c4ccncc4)nc3cc21`, the melting point lay within 336 to 338 °C.

Regarding `Cn1nc(-c2ccc(OC3CCN(C4CCCC4)CC3)cc2)ccc1=O`, the melting point lay in the range of 129 to 132 °C.

As to `COc1nc(C(=O)O)ccc1CN1CC1C#N` (stereo not given), the melting point fell in the range of 96 to 97 °C.

`O=C(Cc1ccc2c(c1)CCC(NS(=O)(=O)c1cccs1)C2)Nc1ccc(C(=O)O)cc1` (stereo not given) showed a melting point of 250 to 252 °C.

In turn, `CCOC(Cc1ccc(OCCN2CCOc3ccccc32)cc1)C(N)=O` (stereo not given) displayed a melting point of 107 to 109 °C.

Compound `Oc1ccc(C(F)(F)C(F)(F)OC(F)(F)C(F)(F)OC(F)(F)C(F)(F)c2ccc(O)cc2)cc1` showed a melting point of 118 to 120 °C.

Turning to `CCOP(=O)(OCC)C(O[Si](C)(C)C)c1ccc(OC)c(C)c1` (stereo not given), the melting point amounted to 37 °C.

`CC(C)Cn1c(=O)n(C)c(=O)c2c(C#CCCCO)n(Cc3cccc4ccccc34)cc21`: the melting point is 176 to 177 °C.

In turn, `CCOCCOC(=O)c1nc2ccc(COc3cccc(OCc4ccc5ccccc5n4)c3)cc2o1` showed a melting point of 84 to 85 °C.

The compound `O=C(NCc1ccc(Br)cc1F)OCc1ccccc1` had a melting point of 82 to 84 °C.

The compound `CC(C)(C)OC(=O)[C@H](Cc1ccc(O)cc1)NC(=O)c1c(Cl)cccc1Cl` returned a melting point of 177 to 178 °C.

The compound `CN(C)c1nc(-c2ccccc2O)cs1` showed a melting point of 201 to 204 °C.

In turn, `O=C(O)c1cccc(-c2ncc(O)cn2)c1` came in with a melting point of 293 to 295 °C.

Consider `CCN1CC(=O)N(c2ccccc2C(F)(F)F)C1=S`, for which the melting point was 82 to 85 °C.

`CCOC(=O)C(NC(=O)c1ccccc1)C(C)C` (stereo not given) gave a melting point of 74 °C.

In turn, `COc1ccc2oc(C(=O)O)c(OC)c2c1` yielded a melting point of 168 °C.

With `O=NN1CCN(c2ccc(Cl)cc2)C1=O`, the melting point lay within 154 to 156 °C.

`COc1nc2cc([N+](=O)[O-])c(C)c(C(=O)N(C)CC(=O)OC(C)(C)C)c2nc1OC`: the melting point is 102 to 105 °C.

For `Cc1cccc(C)c1-c1cccc2c1CC(CN)O2` (stereo not given), the melting point is above 250 °C.

`CCOCc1cc(OC)c(-c2ccc(C[C@H](NC(=O)c3c(F)cccc3Cl)C(=O)O)cc2)c(OC)c1` came in with a melting point of 182 to 184 °C.

As for `CC(Oc1ncn(-c2ccc(C(F)(F)F)cc2)n1)C(=O)O` (stereo not given), the melting point was in the range of 215 to 218 °C.

As to `Cc1nc(NC(=O)c2ccc(S(C)(=O)=O)cc2)sc1C(=O)NCc1ccccc1`, the melting point lay in the range of 262 to 265 °C.

Compound `COc1cccc(Oc2c(NS(=O)(=O)c3ccc(C(C)(C)C)cc3)nc(C(=O)Nc3ccccc3)nc2OCCO)c1` registered a melting point of 143 °C.

`CC1Oc2cc3nc(SCc4ccccn4)[nH]c3cc2O1` showed a melting point of 155 to 156 °C.

`CCCCC1(C2CCCC2)Cc2cc(OCC(=O)O)c(Cl)c(Cl)c2C1=O` (stereo not given) displayed a melting point of 173 to 174 °C.

Compound `Cc1cc(NC(=O)C(C)(O)COc2cccc(F)c2)ccc1[N+](=O)[O-]` (stereo not given) yielded a melting point of 83 to 86 °C.

`CNS(=O)(=O)c1ccc(N)c(C(=O)N2CCNCC2)c1`: the melting point was determined as 169 °C.

`Cc1nc(N2CCc3nc(C)sc3CC2)c([N+](=O)[O-])c(=O)[nH]1`: the melting point is above 200 °C.

`NNc1nc(F)c(C(F)(F)F)cc1Cl` came in with a melting point of 104 to 106 °C.

Compound `CC(=O)C(=O)N[C@H](CO[N+](=O)[O-])c1ccccc1` yielded a melting point of 76 to 77 °C.

`N#CNC(=Nc1ccncc1)NCCCCCOc1ccccc1` came in with a melting point of 188 to 189 °C.

`Cc1ccc(F)c(C(C)Oc2ccc3nc(-c4ccccc4OC(N)=O)sc3c2)c1Cl` (stereo not given) displayed a melting point of 205 °C.

Compound `O=C1Cc2c(cccc2NC(=O)c2cccn(-c3ccc(F)cc3)c2=O)N1` displayed a melting point of 293 to 295 °C.

The compound `O=C(c1ccccc1C(c1ccc(O)cc1)c1ccc(O)cc1)N1CCSCC1` displayed a melting point of 259 to 261 °C.

`COc1nc2cc(Cl)cc(CCCO)c2nc1OC` returned a melting point of 104 to 105 °C.

As for `COC(=O)c1cc(Cl)cnc1OC`, the melting point was in the range of 79 to 81 °C.

`Cc1c(C(=O)N[C@H](C)[C@](O)(Cn2cncn2)c2ccc(F)cc2F)cnn1-c1ccc(F)cc1F` showed a melting point of 208 to 209 °C.

Consider `O=C(NCc1ccc(Cl)cc1)c1cn2c3c(cc(CN4CCOCC4)cc3c1=O)OC(c1ccco1)C2` (stereo not given), for which the melting point lay within 220 to 222 °C.

As for `N#Cc1ccc2[nH]c3ccccc3c2c1`, the melting point lay within 180 to 181 °C.

As to `O=C(O)Cn1cccc(O)c1=O`, the melting point lay in the range of 203 to 205 °C.

For `COC(=O)c1ccc(OC)cc1S(=O)(=O)NC(=O)Nc1nc(C)nc(OC)n1`, the melting point lay in the range of 183 to 186 °C.

In turn, `Cc1nc(COC(=O)c2cccnc2C#N)cs1` returned a melting point of 93 °C.

`CC12CCC(C(=O)O)=CC1=CCC1C2CCC2(C)C(C(=O)CCCc3ccccc3)CCC12` (stereo not given) showed a melting point of 208 to 210 °C.

Regarding `Cc1nc(-c2ccccc2)c(CBr)o1`, the melting point lay in the range of 75 to 76 °C.

On to `BrCc1ccc(-c2onc3ccccc23)cc1`, for which the melting point was in the range of 146 to 147 °C.

In turn, `COc1cc(OCc2ccccc2)cc(Cl)c1Cl` displayed a melting point of 79 to 81 °C.
